{"source": "patent US5348952A", "about": "“β-lactam derivatives of the cephem sulphone type” (Farmitalia Carlo Erba S.R.L., priority 1989, dated 1994)", "key": {"[1]": {"biological_target": "T1, human leukocyte elastase (HLE) (Homo sapiens, UniProt P08246)", "T1 construct": "purchased Calbiochem Lot 702038", "T1 sequence (P08246 30-267)": "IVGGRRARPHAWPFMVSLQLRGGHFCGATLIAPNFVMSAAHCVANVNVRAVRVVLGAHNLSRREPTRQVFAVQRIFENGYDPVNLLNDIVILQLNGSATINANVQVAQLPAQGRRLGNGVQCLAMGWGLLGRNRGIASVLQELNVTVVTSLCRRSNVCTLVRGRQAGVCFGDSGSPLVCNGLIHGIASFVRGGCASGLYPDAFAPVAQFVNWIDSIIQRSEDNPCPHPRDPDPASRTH", "test": "Inhibition of HLE activity, kinetic parameters (Protocol B)", "assay_type": "biochemical", "settings": "for Ki: steady state, read-out: \"Potency\" K1^ (apparent dissociation constant of the HLE-inhibitor complex at steady state, Ki^ss)", "protocol": "Protocol B--Inhibition of HLE activity (Calbiochem, Lot 702038) was determined at 37° C., 0.027M pH 7.4 phosphate buffer, 1% DMSO, 1% MeCN, NaCl (I=15), by monitoring the release of 7-amino-4-methylcoumarin (fluorescence detection) from N-methoxysuccinyl-alanyl-prolyl-valyl-7-amido-4-methylcoumarin as substrate, according to the equations: [formula] wherein: [P], [I], [S]=product, inhibitor and substrate concentration\nkm =Michaelis constant for the enzyme-substrate pair (independently determined under the same experimental conditions)."}, "[2]": {"biological_target": "porcine pancreatic elastase, PPE (Sus scrofa, UniProt P00772)", "sequence (P00772 27-266)": "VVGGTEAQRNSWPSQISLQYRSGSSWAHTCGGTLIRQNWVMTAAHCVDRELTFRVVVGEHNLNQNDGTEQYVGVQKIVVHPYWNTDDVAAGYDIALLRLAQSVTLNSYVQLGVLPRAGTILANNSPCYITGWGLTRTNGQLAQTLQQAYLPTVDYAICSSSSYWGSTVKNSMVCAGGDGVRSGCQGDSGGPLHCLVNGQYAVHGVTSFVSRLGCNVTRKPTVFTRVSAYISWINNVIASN", "test": "Inhibition of PPE activity (Protocol A)", "assay_type": "biochemical", "settings": "30° C., 0.05M pH 7.4 phosphate buffer, 2.5% MeCN; 50% reduction of enzyme activity 6.4 minutes after zero time; read-out: PPE-inhibitory activity IC50 (converted)", "experimental": "To illustrate this point, Table 1 reports the results of our preliminary screening test (carried out with porcine pancreatic elastase, PPE), wherein four representative compounds of the present invention (formula I) are compared with the corresponding 2-unsubstitued compounds of formula II (References A and B).\nProtocol A--Inhibition of PPE activity was determined at 30° C., 0.05M pH 7.4 phosphate buffer, 2.5% MeCN, by monitoring the release of p-nitroaniline (410 nm, Carlo Erba Strumentazione Spectracomp spectrophotometer) from the substrate (N-t-Boc-alanyl-alanyl-prolyl-alanine-p-nitroanilide, 0.2 mM initial concentration)."}, "[3]": {"settings": "37° C., 0.027M pH 7.4 phosphate buffer, 1% DMSO, 1% MeCN, read-out: \"Efficacy\" Kon (rate of formation of the HLE-inhibitor complex)"}, "[4]": {"settings": "37° C., 0.027M pH 7.4 phosphate buffer, 1% DMSO, 1% MeCN"}}, "note": "Like-named read-outs stand apart in the source and are kept apart here."}
{"smiles": "CO[C@H]1C(=O)N2C(C(=O)N3CCCC3)=C(CSc3nc(=O)c(O)nn3C)CS(=O)(=O)[C@H]12", "note": "[Merck L-659,286, reference compound]", "values": [{"measurement": "kon", "setting": "[1]; pH 7.4, read-out: \"Efficacy\" Kon (rate of formation of the HLE-inhibitor complex)", "value": 1500, "unit": "M⁻¹ s⁻¹"}]}
{"smiles": "CC1=C(C(=O)C(C)(C)C)N2C(=O)[C@H](Cl)[C@H]2S(=O)(=O)C1", "note": "[Reference A, reference compound]", "values": [{"measurement": "IC50", "setting": "[2]", "value": 6540, "unit": "nM"}]}
{"smiles": "CO[C@H]1C(=O)N2C(C(=O)C(C)(C)C)=C(C)CS(=O)(=O)[C@H]12", "note": "[Reference B, reference compound]", "values": [{"measurement": "IC50", "setting": "[2]", "value": 6640, "unit": "nM"}]}
{"smiles": "CC1=C(C(=O)OC(C)(C)C)N2C(=O)[C@H](Cl)[C@H]2S(=O)(=O)C1Sc1nc2ccccc2s1", "note": "(some centres unmarked) [Reference C, reference compound]", "values": [{"measurement": "IC50", "setting": "[2]", "value": 4110, "unit": "nM"}]}
{"smiles": "COC(=O)C1=C(C)C(Sc2nnnn2C)S(=O)(=O)[C@@H]2[C@@H](OC)C(=O)N12", "note": "(some centres unmarked) [Reference D, reference compound]", "values": [{"measurement": "IC50", "setting": "[2]", "value": 12800, "unit": "nM"}, {"measurement": "kon", "setting": "[1]; [3]", "value": 500, "unit": "M⁻¹ s⁻¹"}, {"measurement": "Ki", "setting": "[1]; [4]", "value": 38, "unit": "nM"}]}
{"smiles": "CO[C@H]1C(=O)N2C(C(=O)C(C)(C)C)=C(C)C(Sc3nnnn3C)S(=O)(=O)[C@H]12", "note": "(stereo partly drawn) [n° 1, 4-tert-Butylcarbonyl-7α-methoxy-3-methyl-2-(1-methyl-1,2,3,4-tetrazol-5-yl)thio-3-cephem 1,1-dioxide]", "values": [{"measurement": "IC50", "setting": "[2]", "value": 96.3, "unit": "nM"}, {"measurement": "kon", "setting": "[1]; [3]", "value": 90000, "unit": "M⁻¹ s⁻¹"}, {"measurement": "Ki", "setting": "[1]; [4]", "value": 8.3, "unit": "nM"}]}
{"smiles": "CC1=C(C(=O)C(C)(C)C)N2C(=O)[C@H](Cl)[C@H]2S(=O)(=O)C1Sc1nc(=O)c(OC(c2ccccc2)c2ccccc2)nn1C", "note": "(stereo partly drawn) [n° 4, 4-Tert-butylcarbonyl-7α-chloro-3-methyl-2-(2-methyl-5-oxo-6-benzhydryloxy-2,5-dihydro 1,2,4-triazin-3-yl-)thio-3-cephem 1,1-dioxide]", "values": [{"measurement": "IC50", "setting": "[2]", "value": 71.5, "unit": "nM"}]}
{"smiles": "CC1=C(C(=O)C(C)(C)C)N2C(=O)[C@H](Cl)[C@H]2S(=O)(=O)C1Sc1nc(=O)c(O)nn1C", "note": "(stereo partly drawn) [n° 5, 4-tert-butylcarbonyl-7α-chloro-3-methyl-2-(2-methyl-5-oxo-6-hydroxy-2,3-dihydro-1,2,4-triazin-3-yl)-thio-3-cephem 1,1-dioxide]", "values": [{"measurement": "IC50", "setting": "[2]", "value": 75.6, "unit": "nM"}]}
{"smiles": "CO[C@H]1C(=O)N2C(C(=O)C(C)(C)C)=C(C)C(Sc3nnnn3CCCC(=O)O)S(=O)(=O)[C@H]12", "note": "(stereo partly drawn) [n° 7, 4-tert-Butylcarbonyl-7α-methoxy-3-methyl-2-[1-(3-carboxy-1-propyl)-1,2,3,4-tetrazol-5-yl]thio-3-cephem 1,1-dioxide]", "values": [{"measurement": "kon", "setting": "[1]; [3]", "value": 11000, "unit": "M⁻¹ s⁻¹"}, {"measurement": "Ki", "setting": "[1]; [4]", "value": 18, "unit": "nM"}]}
{"smiles": "CO[C@H]1C(=O)N2C(C(=O)C(C)(C)C)=C(C)C(Sc3nc(=O)c(O)nn3C)S(=O)(=O)[C@H]12", "note": "(stereo partly drawn) [n° 9, 4-tert-Butylcarbonyl-7α-methoxy-3-methyl-2-(2-methyl-5-oxo-6-hydroxy-2,5-dihydro-1,2,4-triazin-3-yl)thio-3-cephem 1,1-dioxide]", "values": [{"measurement": "IC50", "setting": "[2]", "value": 65.4, "unit": "nM"}, {"measurement": "kon", "setting": "[1]; [3]", "value": 25000, "unit": "M⁻¹ s⁻¹"}, {"measurement": "Ki", "setting": "[1]; [4]", "value": 26, "unit": "nM"}]}
